In US20210338647A1, “Combination of Acetylcholinesterase Inhibitor and 5-HT4 Receptor Agonist As Neuroprotective Agent In the Treatment of Neurodegenerative Diseases” (UNIVERSITE DE CAEN NORMANDIE, priority 2018, published 2021):

Key:
5XFAD mice [1] = test: Aβ42 concentration in cerebrospinal fluid of chronically treated 5XFAD mice; format: in vivo, mouse; conditions: 1 mg/kg twice a week for 3 months, versus controls
Procedure: (§1) 5XFAD mice received chronic treatments with drugs or vehicle according to 2 different protocols. In each experiment, drugs or vehicle solution were administered i.p. twice a week (1 mg/kg). In “Protocol 1”, mice (n=6-7 mice per group) were treated with compounds for two months, from 2 to 4 months of age. In “Protocol 2”, mice (n=7) were treated with compounds for three months, from 1 month to 4 months of age. At the end of each protocol, mice were anesthetized with a mixture of 100 mg/kg ketamine and 10 mg/kg xylazine in saline solution and perfused transcardially with PBS. Brains were quickly isolated on ice, the olfactory bulbs and cerebellum removed and the two hemispheres divided. One hemisphere was frozen on dry ice and stored at −80° C. for biochemical analysis, while the other was post-fixed in 4% PFA for immunohistochemistry (IHC).
28 female 5XFAD mice (C57BL/6J genetic background) were used in this study. Mice received vehicle or compounds (1 mg/kg) i.p., twice a week for three months, from 1 to 4 months of age.

5XFAD mice [2] = test: Amyloid plaque number (thioflavin T staining) in brain sections of 5XFAD mice; format: in vivo, mouse; conditions: 1 mg/kg twice a week for 3 months, versus controls
Procedure: as §1
Thirty-micrometer-thick sections were cut using a vibratome (Microm HM 650V, Thermo Scientific, Saint Herblain, France) and stored in cryoprotectant medium at −20° C. […]
Images were acquired with an Axiolmager Z1 microscope (Carl Zeiss S.A.S., Marly le Roi, France). […] GFAP expression was quantified using Image J software and results are expressed as area fractions. […]

Compound: CCCCN1CCC(CCC(=O)c2cc(Cl)c(N)cc2OC)CC1 [RS67333, 1-(4-amino-5-chloro-2-methoxy-phenyl)-3-(1-butyl-4-piperidinyl)-1-propanone]
- Aβ42 concentration in cerebrospinal fluid (CSF) (5XFAD mice [1]): not significantly different compared to controls
- Amyloid plaque number in hippocampus (5XFAD mice [2]): not significantly different compared to controls
